Results taken from US20100190849A1, “Novel Clerodanes and Methods for Repelling Arthropods” (priority 2006, published 2010).
Marks after values point to notes of the source that are not given here.

Columns and labels:
Assay in all cases: Multiple-choice digging bioassay, fire ant workers
Type in all cases: in vivo
[1] = test system: black imported fire ants, Solenopsis richteri Forel
Experimental: (§1) The repellency of the two terpenoids, callicarpenal and intermedeol, against workers of red imported fire ants, Solenopsis invicta Buren, black imported fire ants, Solenopsis rickeri Forel, and a hybrid of these two species was evaluated using multiple-choice digging bioassays (Tables 9 & 10). […] Callicarpenal and intermedeol were compared with octanoic acid, a known fire ant repellant, at the 25.00 ppm level using two-choice digging bioassays (FIGS. 3 and 4).
(§2) Ants: Two Solenopsis invicta colonies were collected in Sharkey County, Mississippi, and two Solenopsis richteri colonies were collected in Granada County, Mississippi. Two colonies of the hybrid (S. invicta×S. richteri) colony were collected in Sunflower County, Mississippi. Fire ant mounds were shoveled and placed in 19-L plastic buckets. The inside wall of the bucket was then coated with baby powder (Cumberland Swan Holdings, Inc., Smyrna, Tenn.) to prevent ant escape. Following the water-drip method developed by Bank et al. (Banks, W. A., et al., Techniques for collecting, rearing, and handling imported fire ants, USDA SEA AATS-S-21 (1981)), ants were separated and then placed in a 44.5×60.0×13.0 cm plastic tray with inside walls coated with Fluon® (Ag Fluoropolymers, Chadds Ford, Pa.). Distilled water and 15% (w/v) sucrose water solution in separated test tubes which were plugged with cotton balls were placed in the trays. Heliocoverpa zea (Boddie) and tobacco budworm, Heliothis virescens (Fabricius) pupae were used as food sources. Inside each tray were one to three 14.0×2.0 cm Petri dishes with 1.0 cm of hardener dental plaster (Castone®; Dentsply International Inc. York, Pa.) on the bottom. Also, in the center of the Petri dish was a 5.0-cm diameter brood chamber. Two 8-mm access holes were made on the wall of the petri dish above the dental plaster. The Petri dish lid was painted black (1302 Gloss Black Spray Enamel, Louisville, Ky.)to block the light. All colonies were maintained at 22-25° C.
(§3) Fire ant workers dug and removed sand from the tube through the entry hole. The differences in the amount of removed sand among treated and control tubes were used to evaluate chemical repellency. Four 2 ml centrifuge tubes were mounted under a 14.0×2.3 cm Petri dish using glue (Arrow Fastener Co., inc., Saddle Brook, N.J.). Tubes were 5.0 cm away from the center of the Petri dish and at equal distance from each other. A 3-mm diameter access hole was drilled for each centrifuge tube, which went through the bottom of the Petri dish and the cap of the tube. The inner side of the Petri dish was coated with Fluon. Three concentrations of a test compound and one control were set up in each apparatus. Six concentrations, including […], 6.25, 12.50, and 25.00 ppm, were tested in two separated bioassays for each species and hybrid; however three more concentrations of callicarpenal, 50.00, 100.00, and […], were tested for S. invicta. Sand (Premium Play Sand, Plassein International, Longview, Tex.) was first sieved through a ™35 U.S.A. standard testing sieve (Thomas Scientific, Swedesboro, N.J.) and then washed with distilled water and dried at 350° C. for 12 h. A 3 ml dichloromethane solution of callicarpenal or intermedeol was mixed with 30 g sand in an aluminum pan. The sand was stirred every 2 min to facilitate the evaporation of the solvent under a fume hood. After dichloromethane evaporated (5 minutes), 1.92 ml distilled water was added and mixed with sand. Sand in the control tube was treated only with dichloromethane. In each tube a mean (±SD) 2.78 g (±0.06 g) wet sand was added. There was no open space inside the tube. Locations of each concentration were randomized. Fifty fire ant workers were introduced into the center of the Petri Dish. The experiment was conducted at 22±0.8° C. (mean±SD) temperature and 45.4%±11.87% relative humidity. After 24 h, sand in each vial was collected, dried at 150° C. for at least 4 hour, and weighed. […]

[2] = test system: hybrid (S. invicta×S. richteri)
Experimental: as §1, §2, §3

[3] = test system: red imported fire ants, Solenopsis invicta Buren
Experimental: as §1, §2, §3

With C=C(C)C1CCC2(C)CCCC(C)(O)C2C1 [intermedeol, (4S,5S,7R,10S)-eudesm-11-en-4-ol] the “Sand removed (SE), mean weight of sand removed by ants 24 h after release” value (“Sand removed (SE), mean weight” for short) ([1]; S. richteri colony 1, Exp. 19, 0.75 ppm) was 0.10 (0.06) g, the “Sand removed (SE), mean weight” value ([1]; S. richteri colony 1, Exp. 19, 1.50 ppm) was 0.46 (0.18) g and the “Sand removed (SE), mean weight” value ([1]; S. richteri colony 1, Exp. 19, 3.15 ppm) was 0.24 (0.11) g. For the same compound, the “Sand removed (SE), mean weight” value ([1]; S. richteri colony 1, Exp. 20, 6.25 ppm) was 0.16 (0.10)* g, the “Sand removed (SE), mean weight” value ([1]; S. richteri colony 1, Exp. 20, 12.50 ppm) was 0.07 (0.04)* g and the “Sand removed (SE), mean weight” value ([1]; S. richteri colony 1, Exp. 20, 25.00 ppm) was 0.04 (0.01)* g. For the same compound, the “Sand removed (SE), mean weight” value ([1]; S. richteri colony 2, Exp. 21, 0.75 ppm) was 0.16 (0.12) g, the “Sand removed (SE), mean weight” value ([1]; S. richteri colony 2, Exp. 21, 1.50 ppm) was 0.26 (0.17) g and the “Sand removed (SE), mean weight” value ([1]; S. richteri colony 2, Exp. 21, 3.15 ppm) was 0.17 (0.16) g. For the same compound, the “Sand removed (SE), mean weight” value ([1]; S. richteri colony 2, Exp. 22, 6.25 ppm) was 0.02 (0.01)* g, the “Sand removed (SE), mean weight” value ([1]; S. richteri colony 2, Exp. 22, 12.50 ppm) was 0.14 (0.07)* g and the “Sand removed (SE), mean weight” value ([1]; S. richteri colony 2, Exp. 22, 25.00 ppm) was 0.02 (0.02)* g. For the same compound, the “Sand removed (SE), mean weight” value ([2]; Hybrid colony 1, Exp. 23, 0.75 ppm) was 0.43 (0.15) g, the “Sand removed (SE), mean weight” value ([2]; Hybrid colony 1, Exp. 23, 1.50 ppm) was 0.10 (0.03)* g and the “Sand removed (SE), mean weight” value ([2]; Hybrid colony 1, Exp. 23, 3.15 ppm) was 0.10 (0.03)* g. The “Sand removed (SE), mean weight” value ([2]; Hybrid colony 1, Exp. 24, 6.25 ppm) was 0.45 (0.08)* g, the “Sand removed (SE), mean weight” value ([2]; Hybrid colony 1, Exp. 24, 12.50 ppm) was 0.37 (0.04)* g and the “Sand removed (SE), mean weight” value ([2]; Hybrid colony 1, Exp. 24, 25.00 ppm) was 0.20 (0.09)* g. For the same compound, the “Sand removed (SE), mean weight” value ([2]; Hybrid colony 2, Exp. 25, 0.75 ppm) was 0.34 (0.14) g, the “Sand removed (SE), mean weight” value ([2]; Hybrid colony 2, Exp. 25, 1.50 ppm) was 0.25 (0.10) g and the “Sand removed (SE), mean weight” value ([2]; Hybrid colony 2, Exp. 25, 3.15 ppm) was 0.28 (0.09) g. For the same compound, the “Sand removed (SE), mean weight” value ([2]; Hybrid colony 2, Exp. 26, 6.25 ppm) was 0.20 (0.08)* g, the “Sand removed (SE), mean weight” value ([2]; Hybrid colony 2, Exp. 26, 12.50 ppm) was 0.10 (0.04)* g and the “Sand removed (SE), mean weight” value ([2]; Hybrid colony 2, Exp. 26, 25.00 ppm) was 0.04 (0.01)* g. For the same compound, the “Sand removed (SE), mean weight” value ([3]; S. invicta colony 1, Exp. 15, 0.75 ppm) was 0.56 (0.06) g, the “Sand removed (SE), mean weight” value ([3]; S. invicta colony 1, Exp. 15, 1.50 ppm) was 0.36 (0.09)* g and the “Sand removed (SE), mean weight” value ([3]; S. invicta colony 1, Exp. 15, 3.15 ppm) was 0.20 (0.06)* g. The “Sand removed (SE), mean weight” value ([3]; S. invicta colony 1, Exp. 16, 6.25 ppm) was 0.66 (0.15)* g, the “Sand removed (SE), mean weight” value ([3]; S. invicta colony 1, Exp. 16, 12.50 ppm) was 0.25 (0.13)* g and the “Sand removed (SE), mean weight” value ([3]; S. invicta colony 1, Exp. 16, 25.00 ppm) was 0.18 (0.09)* g. The “Sand removed (SE), mean weight” value ([3]; S. invicta colony 2, Exp. 17, 0.75 ppm) was 0.44 (0.10)* g, the “Sand removed (SE), mean weight” value ([3]; S. invicta colony 2, Exp. 17, 1.50 ppm) was 0.35 (0.08)* g and the “Sand removed (SE), mean weight” value ([3]; S. invicta colony 2, Exp. 17, 3.15 ppm) was 0.35 (0.12)* g. For the same compound, the “Sand removed (SE), mean weight” value ([3]; S. invicta colony 2, Exp. 18, 6.25 ppm) was 0.17 (0.08)* g, the “Sand removed (SE), mean weight” value ([3]; S. invicta colony 2, Exp. 18, 12.50 ppm) was 0.02 (0.01)* g and the “Sand removed (SE), mean weight” value ([3]; S. invicta colony 2, Exp. 18, 25.00 ppm) was 0.04 (0.01)* g.
